PubChem BioAssay AID1648 (Sanford-Burnham Center for Chemical Genomics, 2009)
Calls of active or inactive are those of the source. How the calls were made is not given here.

These compounds were tested against Serine/threonine-protein kinase mTOR (Homo sapiens) (UniProt P42345) (assay: mTOR FRB domain ligand binding – biophysical, NMR (AID 1648)). Conditions: NMR binding to FRB domain, chemical shift.
Chain of Serine/threonine-protein kinase mTOR (Homo sapiens) (P42345 2015-2114): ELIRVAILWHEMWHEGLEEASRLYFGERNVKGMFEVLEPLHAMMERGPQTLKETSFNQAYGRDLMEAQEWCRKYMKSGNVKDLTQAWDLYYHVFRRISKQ

Structure (SMILES)	Kd
Nc1ccccc1-n1cccn1	> 4 mM (inactive)
CCC(=O)NC(=S)Nc1ccc(O)cc1	> 4 mM (inactive)
O=S1(=O)CCC(Nc2ccccc2)C1 (stereo not given)	> 4 mM (inactive)
COc1cccc(OC)c1C(=O)N1CCOCC1	> 4 mM (inactive)
COC(=O)c1[nH]c2ccccc2c1C(=O)OC	> 4 mM (inactive)
Cc1cc2c(N)cccc2nn1	> 4 mM (inactive)
NC(=O)c1c(Cl)nsc1-c1ccccc1Cl	> 4 mM (inactive)
O=C(O)c1cccnc1N1CCOCC1	> 4 mM (inactive)
CCOc1cc(S(=O)(=O)N2CCOCC2)ccc1F	> 4 mM (inactive)
NC(=O)Cn1nc(-c2ccco2)ccc1=O	> 4 mM (inactive)
CN1CCN(c2ncnc3nc[nH]c23)CC1	> 4 mM (inactive)
Cc1noc(-c2ccccc2)c1CO	> 4 mM (inactive)
O=S(=O)(Nc1cccnc1Cl)c1ccccc1	> 4 mM (inactive)
Oc1ccccc1C(=S)N1CCCCCC1	> 4 mM (inactive)
COc1cc2nc(-c3cccs3)oc(=O)c2cc1OC	> 4 mM (inactive)
CCOC(=O)C1CCNCC1	> 4 mM (inactive)
O=C1COc2ccccc2C(=O)N1	> 4 mM (inactive)
CC(=O)O[C@@H]1CC2C(C)(C)[C@@H](O)CC[C@]2(C)C2CC[C@@]3(C)[C@H](c4ccoc4)OC(=O)[C@H]4O[C@]43[C@@]21C (stereo not given in full)	> 4 mM (inactive)
O=C(CN1C(=O)CCC1=O)c1ccccc1	> 4 mM (inactive)
NCc1ccccc1N1CCOCC1	> 4 mM (inactive)
CC(=O)Oc1cc(-c2coc3cc(OC(C)=O)c(OC(C)=O)c(OC(C)=O)c3c2=O)cc(OC(C)=O)c1OC(C)=O	> 4 mM (inactive)
O=S(=O)(N1CCOCC1)n1nnc2ccccc21	> 4 mM (inactive)
CC(=O)Nc1ccn(Cc2c(F)cccc2Cl)n1	> 4 mM (inactive)
Cc1c(/C=N\n2cnnc2)c2ccccc2n1C	> 4 mM (inactive)

Structure (SMILES)	Kd
CC(C)=CC(=O)Nc1ccccc1Br	> 4 mM (inactive)
OC1CC(c2ccccc2)NC2(CCCC2)C1 (stereo not given)	> 4 mM (inactive)
CS(=O)(=O)Cc1ccccc1	> 4 mM (inactive)
O=C(O)c1cc2ccccc2[nH]1	> 4 mM (inactive)
CN(C)S(=O)(=O)N1CCc2ccccc21	> 4 mM (inactive)
CC1(C)C2C[C@@H](O)[C@]3(C)C(CC[C@@]4(C)[C@H](c5ccoc5)OC(=O)[C@H]5O[C@]543)[C@@]2(C)[C@@H](O)C[C@H]1O (stereo not given in full)	> 4 mM (inactive)
O=C1COc2ccc(C(=O)c3ccccc3)cc2CN1	> 4 mM (inactive)
COc1ccc2c(c1)O[C@H]1c3ccc(OC)cc3OC[C@@H]21	> 4 mM (inactive)
CC(C)=CC(=O)Nc1ccccc1C(N)=O	> 4 mM (inactive)
Cc1cc(C)n(-c2nc(N)cc(=O)[nH]2)n1	> 4 mM (inactive)
CC1Cc2nc(SCC(N)=O)n(C)c(=O)c2S1 (stereo not given)	> 4 mM (inactive)
C=C1CSc2nc(=O)c3c(C)c(C)sc3n21	> 4 mM (inactive)
O=C(Nc1nncs1)c1c(F)c(F)c(F)c(F)c1F	> 4 mM (inactive)
COc1ccc(-c2coc3c(OC)c(OC)cc(O)c3c2=O)cc1	> 4 mM (inactive)
CS(=O)(=O)N/N=C/c1cccs1	> 4 mM (inactive)
NCc1ccc(-c2ccccn2)s1	> 4 mM (inactive)
C=C[C@H]1CN2CC[C@H]1C[C@@H]2[C@@H](O)c1ccnc2ccc(OC)cc12	> 4 mM (inactive)
O=C1CC(N2CCC(O)CC2)C(=O)N1c1ccc(F)cc1 (stereo not given)	> 4 mM (inactive)
CCOCC(=O)N1CCc2ccccc21	> 4 mM (inactive)
COC(=O)C[C@H]1C2(C)CC34OC5(C)O[C@@]6([C@H](OC)C(OC(=O)C(C)C)[C@]7(C)C(/C(=C(/OC)C(C)C)C(=O)O[C@H]7c7ccoc7)[C@@]6(O5)[C@H](OC)[C@@]3(OC)C2OC(C)=O)[C@]14C (stereo not given in full)	> 4 mM (inactive)
O=C(O)Cc1c[nH]c2ccccc12	> 4 mM (inactive)
O=C(Nc1ccccc1)Nc1ccccn1	> 4 mM (inactive)
CNC(=O)Oc1ccc2c(c1)[C@]1(C)CCN(C)[C@@H]1N2C	> 4 mM (inactive)
CC(=O)CC(=O)N1C(O)CC[N+]1(C)C (stereo not given)	> 4 mM (inactive)

Structure (SMILES)	Kd
N#Cc1ccccc1CSc1ccccn1	> 4 mM (inactive)
COc1cc(OC)c2c(=O)c(OC)c(-c3ccc(OC)c(OC)c3)oc2c1	> 4 mM (inactive)
Cc1cc2nc(SCC(=O)O)nc(C)c2cc1C	> 4 mM (inactive)
COc1ccccc1-c1c(C)nn2c(C)c(C(C)=O)cnc12	> 4 mM (inactive)
O=C(O)c1scc2c1CCCC2	> 4 mM (inactive)
O=C1NC(=O)C2C3C=CC(O3)C12 (stereo not given)	> 4 mM (inactive)
CSc1nnnn1-c1cccc(O)c1	> 4 mM (inactive)
CC12CCC(O)CC1CCC1C2[C@H](O)CC2(C)C(C3=CC(=O)OC3)CCC12O (stereo not given in full)	> 4 mM (inactive)
Cc1occc(=O)c1O	> 4 mM (inactive)
N[C@@H](Cc1cc(I)c(Oc2cc(I)c(O)c(I)c2)c(I)c1)C(=O)O	> 4 mM (inactive)
CNC(=O)c1ccc([N+](=O)[O-])cc1Cl	> 4 mM (inactive)
O=C1CCC(=O)N1c1cccnc1	> 4 mM (inactive)
NCc1ccc(-n2cccn2)cc1	> 4 mM (inactive)
COc1ccc(Cl)cc1NC(=O)C(N)=O	> 4 mM (inactive)
CSc1n[nH]c(NCc2ccccc2)n1	> 4 mM (inactive)
Cc1ccccc1-n1c(N)cc(=O)[nH]c1=S	> 4 mM (inactive)
NC(=O)/C=C/C(=O)Nc1ccccc1	> 4 mM (inactive)
CC(=O)NC(NC(C)=O)c1ccccc1	> 4 mM (inactive)
Cc1nc(-c2ccccc2)sc1CO	> 4 mM (inactive)
O=C(c1ccco1)N1CCCN(C(=O)c2ccco2)CC1	> 4 mM (inactive)
COCCn1c(C)cc(O)cc1=O	> 4 mM (inactive)
OC1CCCN(Cc2ccccc2)C1 (stereo not given)	> 4 mM (inactive)
Nc1ccc(N2CCOCC2)c(Cl)c1	> 4 mM (inactive)
C=C[C@H]1CN2CC[C@H]1C[C@H]2[C@H](O)c1ccnc2ccccc12	> 4 mM (inactive)

Structure (SMILES)	Kd
NC(=O)c1ccc(C(N)=O)cc1	> 4 mM (inactive)
Cn1nc(C(=O)N2CCCC2)c2ccccc2c1=O	> 4 mM (inactive)
Cc1nnsc1C(=O)Nc1ccc(C(N)=O)cc1	> 4 mM (inactive)
COc1cc(O)c(C(C)=O)c(OC)c1	> 4 mM (inactive)
COC(=O)CSc1nc(N)cc(=O)[nH]1	> 4 mM (inactive)
O=c1[nH]c(N2CCOCC2)nc2ccccc12	> 4 mM (inactive)
O=S(=O)(Nc1cccc2cn[nH]c12)c1ccc(F)cc1	> 4 mM (inactive)
COC(=O)N1CCN(c2ccc(C(C)=O)cc2)CC1	> 4 mM (inactive)
Cc1nc(N)sc1C(=O)N/N=C/c1ccncc1	> 4 mM (inactive)
O=C(O)c1ccc(-c2ccccn2)s1	> 4 mM (inactive)
OC1CSc2ncnn2C1 (stereo not given)	> 4 mM (inactive)
Cc1ccc2cc(CO)ccc2n1	> 4 mM (inactive)
NC(=O)CCn1cnc2ccccc21	> 4 mM (inactive)
O=C1CN(C(=O)c2ccccc2)c2ccccc2N1	> 4 mM (inactive)
CC(C)NC(=O)Cc1c(O)c2ccccc2[nH]c1=O	> 4 mM (inactive)
OCc1ccc(Oc2ccccc2)nc1	> 4 mM (inactive)
CN(C)S(=O)(=O)c1ccc(NC=O)cc1	> 4 mM (inactive)
Cn1nnc2cc(C(=O)O)ccc21	> 4 mM (inactive)
Nc1nc2ncc(CNc3ccc(C(=O)N[C@@H](CCC(=O)O)C(=O)O)cc3)nc2c(=O)[nH]1	> 4 mM (inactive)
O=C1C2CCCCC2C(=O)N1c1ccc(O)cc1 (stereo not given)	> 4 mM (inactive)
Nc1ccc2c(c1)COc1ccccc1O2	> 4 mM (inactive)
Nc1cc(=O)[nH]c(SCC(=O)NC2CCCCC2)n1	> 4 mM (inactive)
CCOc1nc(C)ccc1-c1noc(-c2ccncc2)n1	> 4 mM (inactive)
CC(=O)O[C@@H]1CC2C(C)(C)C(=O)C3OC3[C@]2(C)C2CC[C@@]3(C)[C@H](c4ccoc4)OC(=O)C4OC43[C@@]21C (stereo not given in full)	> 4 mM (inactive)

Structure (SMILES)	Kd
COC(=O)C[C@H]1C(C)(C)C(=O)[C@@H]2CC3=C4CC(=O)O[C@@H](c5ccoc5)[C@]4(C)CCC3C1(C)C2=O (stereo not given in full)	> 4 mM (inactive)
NCc1cccc2nsnc12	> 4 mM (inactive)
Cc1ccccc1NC(=O)CSc1ccnc(=O)[nH]1	> 4 mM (inactive)
Cc1nnc2sc(-c3csc4c3CCCC4)nn12	> 4 mM (inactive)
O=C1NC(=O)/C(=C\c2ccncc2)S1	> 4 mM (inactive)
CCCCCCCCCCCC1=C(O)C(=O)C=C(O)C1=O	> 4 mM (inactive)
C[C@@H](N)[C@@H](O)c1ccccc1	> 4 mM (inactive)
Cc1cc(=O)n(CCc2ccccc2)c(O)c1C#N	> 4 mM (inactive)
CC(=O)c1cc(C)ccc1OC(=O)c1cccnc1	> 4 mM (inactive)
NC(=O)CN1C(=O)c2cccc3cccc1c23	> 4 mM (inactive)
NC(=O)CSc1ccc2nnc(-c3ccccc3)n2n1	> 4 mM (inactive)
CCOC(=O)c1c(C)cc(O)cc1O	> 4 mM (inactive)
O=C1CCC(C(=O)NCc2cccnc2)N1 (stereo not given)	> 4 mM (inactive)
Cc1nnsc1C(=O)Nc1cccc(S(N)(=O)=O)c1	> 4 mM (inactive)
COc1ccc(C2CC(=O)NN2)cc1OC1CCCC1 (stereo not given)	> 4 mM (inactive)
NC(=O)CSc1ccc(-c2ccccc2)nn1	> 4 mM (inactive)
CN1CCC[C@H]1c1cccnc1	> 4 mM (inactive)
Cc1cc(NC(=O)CCCn2cnc([N+](=O)[O-])n2)no1	> 4 mM (inactive)
CN1C2CCC1CC(OC(=O)C(CO)c1ccccc1)C2 (stereo not given)	> 4 mM (inactive)
O=c1cc(-c2ccc(O)cc2)[nH]c(=S)[nH]1	> 4 mM (inactive)
CCn1cnc(C(=O)NC)c1C(=O)NC	> 4 mM (inactive)
CC(=O)NCS(=O)(=O)c1ccc(C)cc1	> 4 mM (inactive)
Cc1ccc(F)cc1NC(=O)c1ccc2c(c1)OCO2	> 4 mM (inactive)
O=C(O)c1cc(F)cc2c1OCOC2	> 4 mM (inactive)
